Reference: paper PMC11558097, “Enhanced Tumor‐Targeted Delivery of Arginine‐Rich Peptides via a Positive Feedback Loop Orchestrated by Piezo1/integrin β1 Signaling Axis” (Advanced Science, 2024)
Ends that are not written are not given here.

Legend:
T24 cells [1] = assay: Cellular uptake pathways, flow cytometry with endocytosis inhibitors; assay type: cell-based, human; settings: serum-free media
Protocol: (§1) Flow cytometry was used to measure the fluorescence signal. Cells were seeded in a 6‐well plate at 1.0 × 10^5 cells per well and treated with R11 peptides and a series of inhibitors for 4 h, including NaN3 (active uptake inhibitor, 20 mM), methyl‐β‐cyclodextrin (MβCD: lipid raft‐mediated endocytosis inhibitor, 5 µg mL^−1), EIPA (macropinocytosis inhibitor, […]), Chlorpromazine (CPZ: clathrin‐mediated endocytosis, 5 µg mL^−1) or Dynasore (dynamin‐dependent endocytosis inhibitor, […]) in serum‐free media at 37 °C or 4 °C for 4 h, respectively. Then, the cells were trypsinized, washed, and suspended in 1 mL PBS. The fluorescence intensity of 10 000 cells was measured using a BD LSR II flow cytometer.

[2] = system: BC cell lines (5637, T24, and 253J); assay: Flow cytometry and fluorescence microscopy, uptake of R11 in BC cell lines versus control cells; assay type: cell-based, human; settings: BC cell lines versus Raw264.7 and SV-HUC control cells, R11 100 nM
Protocol: as §1

bladder tumors = assay: Mouse orthotopic BC model, IVIS imaging after intravesical instillation; assay type: in vivo; settings: female nude mice, orthotopic integrin β1-GFP BC model
Protocol: All the animal experiments were carried out following guidelines approved by the ethics committee of Xi'an Jiaotong University, Xi'an, China. Female nude mice aged 4–6 weeks were randomly sorted. After gaseous anesthesia, an intravenous indwelling needle lubricated with paraffin cotton was inserted into the bladder and fixed well. Then, the urine was removed, and the bladder was rinsed with PBS 3 times. Next, the abdominal skin was disinfected by iodine tincture and cut open for approximately 1 cm. GFP‐integrin β1 cells (1 × 10^6/mL) were injected into the bladder wall with an insulin needle under direct visualization. Last, the abdominal wall was stitched and bound with gauze. After 7 days, the effect of bladder tumor implantation was observed. After intravesical perfusion of R11 peptides or gold nanoparticles, tumor‐bearing mice were detected using an in vivo imaging system/IVIS (AniView) to take images. In addition, frozen sections of the tumors were stained with DAPI, and the fluorescence of each section of the tumor was analyzed by fluorescence microscopy.

253J cells = assay: Antibody block assay (integrin α2β1 antibody), R11 uptake by flow cytometry; assay type: cell-based, human; settings: Anti-integrin α2β1 5 ug/mL for 2 h
Protocol: (§2) Antibody integrin α2β1 (ab30483) used for blocking the binding motif was purchased from ABCAM. Cells were planted in the 6‐well plates and treated with Anti‐integrin α2β1 (5 ug/mL). After incubation for 2 h, the cells were treated with R11 peptides and collected. Then, the cells were trypsinized, washed, and suspended in 1 mL PBS. The fluorescence intensity of 10 000 cells was measured using flow cytometer.

T24 cells [3] = assay: as above; assay type: cell-based, human; settings: Anti-integrin α2β1 5 ug/mL for 2 h
Protocol: as §2

Piezo1 in T24 cells = assay: Flow cytometry of Ca2+ signal and R11 uptake with Piezo1 agonist or inhibitor; assay type: cell-based, human; settings: for effect on R11 uptake efficiency and Ca2+ release: T24 cells exposed to R11, Yoda1 10 nM, GsMTx4 2.5 nM
[4] = biological target: T1, integrin β1 (standard of an integrin β1 ELISA kit) (UniProt P05556 21-728); assay: ELISA; integrin β1 standards (0.5 µg/mL) added to the microplate wells of an integrin β1 ELISA kit, in triplicate; R11-TRITC serially diluted in PBS (0.001-10 000 nM), 2 h at 37 °C; washed; fluorescence of the bound peptide read on a microplate reader; settings: both partners purified
T1 construct: integrin β1 (ITGB1), standard protein of a commercial ELISA kit; also called ITGB1; integrin β1 standards; source: bought: standard of the integrin β1 ELISA kit, Shanghai Westang Bio-Tech CO., LTD
T1 sequence (P05556 21-728): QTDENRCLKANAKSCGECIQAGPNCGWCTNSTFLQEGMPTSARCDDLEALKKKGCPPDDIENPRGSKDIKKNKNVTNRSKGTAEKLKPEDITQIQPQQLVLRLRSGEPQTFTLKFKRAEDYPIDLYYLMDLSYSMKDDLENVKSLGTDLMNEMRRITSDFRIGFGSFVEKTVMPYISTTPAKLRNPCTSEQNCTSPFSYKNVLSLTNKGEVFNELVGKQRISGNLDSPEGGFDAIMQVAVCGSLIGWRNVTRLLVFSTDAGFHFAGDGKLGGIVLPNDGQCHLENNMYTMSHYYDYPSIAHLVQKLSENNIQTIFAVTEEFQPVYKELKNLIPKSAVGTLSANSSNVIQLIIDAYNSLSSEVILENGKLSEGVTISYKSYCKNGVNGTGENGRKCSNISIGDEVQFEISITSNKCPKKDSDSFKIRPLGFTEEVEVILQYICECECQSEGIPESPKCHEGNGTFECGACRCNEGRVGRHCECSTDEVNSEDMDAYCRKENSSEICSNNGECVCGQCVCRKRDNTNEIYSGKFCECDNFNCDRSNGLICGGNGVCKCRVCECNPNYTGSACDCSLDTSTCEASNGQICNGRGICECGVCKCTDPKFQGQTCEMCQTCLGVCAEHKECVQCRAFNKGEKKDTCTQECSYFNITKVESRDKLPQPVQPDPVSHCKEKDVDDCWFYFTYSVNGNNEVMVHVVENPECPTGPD

Molecule: N=C(N)NCCC[C@H](NC(=O)[C@H](CCCNC(=N)N)NC(=O)[C@H](CCCNC(=N)N)NC(=O)[C@H](CCCNC(=N)N)NC(=O)[C@H](CCCNC(=N)N)NC(=O)[C@H](CCCNC(=N)N)NC(=O)[C@H](CCCNC(=N)N)NC(=O)[C@H](CCCNC(=N)N)NC(=O)[C@H](CCCNC(=N)N)NC(=O)[C@H](CCCNC(=N)N)NC(=O)[C@H](CCCNC(=N)N)NC(=O)CN)C(=O)O [R11, hendeca‐arginine peptide]
- uptake of R11 with Dynasore (T24 cells [1]; Dynasore 80 µmol mL^−1, 4 h): inhibited uptake partly
- uptake of R11 with EIPA (T24 cells [1]; EIPA (macropinocytosis inhibitor) 10 µmol mL^−1, 4 h): suppressed nearly half
- uptake of R11 with NaN3 and 4 °C (T24 cells [1]; NaN3 20 mM or 4 °C, 4 h): blocked
- fluorescence signal of R11 (uptake) [2]: stronger fluorescence signal in BC cell lines compared to control cells
- identification of bladder tumors in vivo (IVIS) (bladder tumors): successfully identified bladder tumors in vivo but not adjacent kidney tissues
- uptake of R11 peptides after blocking integrin α2β1 (253J cells): completely inhibited
- uptake of R11 peptides after blocking integrin α2β1 (T24 cells [3]): completely inhibited
- Ca2+ signal (Piezo1 in T24 cells; T24 cells, varying R11 concentrations): increased consistently with the concentration of R11 peptides

Molecule: Clc1cccc(Cl)c1CSc1nnc(-c2cnccn2)s1 [Yoda1]
- effect on R11 uptake efficiency and Ca2+ release (Piezo1 in T24 cells): enhanced both the uptake efficiency and Ca^2+ release

Molecule: GsMTx4
- effect on R11 uptake efficiency and Ca2+ release (Piezo1 in T24 cells): opposite effect

B1: hendeca-arginine peptide (R11), GRRRRRRRRRRR-TRITC (peptide)
peptide: GRRRRRRRRRRR-{TRITC}
notes: designed cell-penetrating peptide: glycine followed by 11 arginines; also called R11 peptides; arginine-rich peptides; source: synthetic peptide, synthesized and purified by GL Biochem Ltd (Shanghai, China)
- EC50 [4]: 5.97 nM
